According to patent US20250026721A1, “COMPOUNDS AND METHODS FOR MODULATING RAS-PI3K” (Vividion Therapeutics, Inc., priority 2023, published 2025):

These molecules were tested against T1, PIK3CA (Homo sapiens, UniProt P42336) (assay: In vitro ELISA target engagement assay for PIK3CA in Jurkat cellular lysate (competition with PIK3CA Biotin Probe)). Details: 1 hour at rt, then 500 nM PIK3CA Biotin Probe, read-out: Elisa Target Engagement Assay (TE50).
T1 construct: endogenous in cells; host or cells: Jurkat cell lysate
Type: binding
Experimental: Example 3. In Vitro ELISA Target Engagement Assay for […] Engagement of compounds on PIK3CA were assessed in Jurkat cellular lysate via a sandwich ELISA. A solution of PIK3CA Biotin Probe was generated at 10 mM and used in the biological testing. […] Treatment Protocol: Jurkat cellular lysate was generated from frozen cell pellets. Cells were thawed on ice and resuspended in cold Dulbecco's phosphate buffered saline (DPBS) (12 mL/300 e^6 cells) then lysed by probe sonication (12×3 second pulses). Jurkat lysate was plated (50 μl/well) in Armadillo 96 well PCR plates (Thermo Fisher catalog number AB2396). The lysate was treated with serial dilutions of test compounds up to 200 μM and incubated for 1 hour at rt. Following compound incubation, PIK3CA Biotin Probe was added to a final concentration of 500 nM, and lysate was mixed by pipetting gently and incubated for an additional 1 hour at rt. The mixture was then diluted in 75 μL Dilution buffer. The mixture was centrifuged for 5 minutes at 4122 g and stored at −80° C. until ELISA TE detection. ELISA TE Detection: Quantification of PIK3CA TE was initiated by coating of the ELISA plate (Thermo Scientific White 384-Well Immuno plates; Thermo Fisher catalog number 460372). The capture antibody was diluted in plating buffer (1:83) and added to the ELISA plate, 20 μl/well, overnight at 4° C. The plate was then washed twice with PBST, 100 μl/well, and blocked with addition of blocking buffer (100 μl/well, 1 hour at rt). During block, treated and probe labeled lysate was thawed. After Block, the block buffer was removed and the thawed lysate was added to the ELISA plate, 30 μl/well, for 1.5 hours at rt. Following lysate incubation, the assay plate was washed 3 times with PBST, 100 μl/well. The Neutravidin-HRP was then diluted (1:500 in dilution buffer) and added for 1 hour at rt, 20 μl/well. Following incubation, the assay plate was washed 4 times with PBST, 100 μl/well, HRP substrate was added to plate, 20 μl/well and luminescence signal was read (Clariostar Plate Reader). For each compound the potency of target engagement (TE50) was determined using Graphpad Prism.

T1 sequence (P42336 whole entry): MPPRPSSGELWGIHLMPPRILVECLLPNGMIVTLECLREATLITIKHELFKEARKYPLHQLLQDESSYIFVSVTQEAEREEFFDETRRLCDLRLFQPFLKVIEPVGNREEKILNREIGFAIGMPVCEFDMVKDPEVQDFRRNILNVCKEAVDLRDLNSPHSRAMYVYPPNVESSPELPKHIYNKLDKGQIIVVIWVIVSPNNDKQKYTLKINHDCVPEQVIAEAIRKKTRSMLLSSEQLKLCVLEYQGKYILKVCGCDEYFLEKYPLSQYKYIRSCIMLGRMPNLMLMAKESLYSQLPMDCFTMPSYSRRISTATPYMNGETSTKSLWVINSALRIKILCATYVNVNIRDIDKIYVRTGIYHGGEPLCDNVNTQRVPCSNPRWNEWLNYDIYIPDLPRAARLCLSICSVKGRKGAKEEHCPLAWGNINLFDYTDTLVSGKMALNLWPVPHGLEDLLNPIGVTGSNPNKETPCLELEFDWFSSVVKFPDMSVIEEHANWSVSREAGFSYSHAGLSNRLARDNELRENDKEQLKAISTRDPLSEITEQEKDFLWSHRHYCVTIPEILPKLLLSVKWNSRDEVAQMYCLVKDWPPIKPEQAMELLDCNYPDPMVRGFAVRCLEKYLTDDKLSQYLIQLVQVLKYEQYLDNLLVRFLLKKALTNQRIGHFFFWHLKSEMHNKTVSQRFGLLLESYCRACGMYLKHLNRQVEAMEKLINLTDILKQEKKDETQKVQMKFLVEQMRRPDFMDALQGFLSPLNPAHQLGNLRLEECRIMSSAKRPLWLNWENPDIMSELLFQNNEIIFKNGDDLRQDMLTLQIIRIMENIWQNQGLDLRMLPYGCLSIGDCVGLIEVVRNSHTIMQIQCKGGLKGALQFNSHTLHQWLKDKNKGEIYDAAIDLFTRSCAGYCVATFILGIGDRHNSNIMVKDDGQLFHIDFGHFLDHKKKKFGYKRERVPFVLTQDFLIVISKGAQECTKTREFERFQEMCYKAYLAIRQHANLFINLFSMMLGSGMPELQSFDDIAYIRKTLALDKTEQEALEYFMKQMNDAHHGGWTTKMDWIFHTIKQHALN
T1 sequence (P27986 whole entry partner): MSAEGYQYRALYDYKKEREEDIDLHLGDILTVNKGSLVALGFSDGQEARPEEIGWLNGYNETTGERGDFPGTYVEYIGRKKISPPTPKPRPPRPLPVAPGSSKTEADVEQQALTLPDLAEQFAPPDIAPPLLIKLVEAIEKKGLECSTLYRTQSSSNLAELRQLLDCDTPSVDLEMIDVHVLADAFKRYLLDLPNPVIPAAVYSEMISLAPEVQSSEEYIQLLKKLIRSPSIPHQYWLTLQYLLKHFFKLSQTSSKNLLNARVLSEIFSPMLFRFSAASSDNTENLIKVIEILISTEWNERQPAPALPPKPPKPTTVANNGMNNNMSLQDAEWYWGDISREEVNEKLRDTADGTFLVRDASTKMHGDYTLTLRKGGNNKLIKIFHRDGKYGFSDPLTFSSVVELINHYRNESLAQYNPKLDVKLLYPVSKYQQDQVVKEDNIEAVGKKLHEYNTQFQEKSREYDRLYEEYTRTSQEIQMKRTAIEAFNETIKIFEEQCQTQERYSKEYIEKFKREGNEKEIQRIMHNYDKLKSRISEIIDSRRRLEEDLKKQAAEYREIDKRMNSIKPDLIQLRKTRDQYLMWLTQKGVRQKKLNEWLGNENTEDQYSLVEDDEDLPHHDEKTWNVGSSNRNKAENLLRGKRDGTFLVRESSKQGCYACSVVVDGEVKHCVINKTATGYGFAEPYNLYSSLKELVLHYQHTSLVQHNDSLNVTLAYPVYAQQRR

`C[C@H](/C=C\S(C)(=O)=O)NC(=O)C1(F)CCN(S(=O)(=O)c2ccc(Br)cc2-c2cccc(F)c2Cl)CC1` [Compound 52, (R,Z)-1-((5-bromo-2′-chloro-3′-fluoro-[1,1′-biphenyl]-2-yl)sulfonyl)-4-fluoro-N-(4-(methylsulfonyl)but-3-en-2-yl)piperidine-4-carboxamide] and `Cc1c(F)cccc1-c1cc(Br)ccc1S(=O)(=O)N1CCC(F)(C(=O)N[C@H](C)/C=C\S(C)(=O)=O)CC1` [Compound 56, (R,Z)-1-((5-bromo-3′-fluoro-2′-methyl-[1,1′-biphenyl]-2-yl)sulfonyl)-4-fluoro-N-(4-(methylsulfonyl)but-3-en-2-yl)piperidine-4-carboxamide] are within 1.5-fold of each other in IC50: 140 nM for the first, 150 nM for the second.

`Cc1ccc(-c2cc(Br)ccc2S(=O)(=O)N2CCC(F)(C(=O)N[C@H](C)/C=C\S(C)(=O)=O)CC2)c(Cl)c1` [Compound 53, (R,Z)-1-((5-bromo-2′-chloro-4′-methyl-[1,1′-biphenyl]-2-yl)sulfonyl)-4-fluoro-N-(4-(methylsulfonyl)but-3-en-2-yl)piperidine-4-carboxamide] and `Cc1cccc(-c2cc(Br)ccc2S(=O)(=O)N2CCC(F)(C(=O)N[C@H](C)/C=C\S(C)(=O)=O)CC2)c1Cl` [Compound 59, (R,Z)-1-((5-bromo-2′-chloro-3′-methyl-[1,1′-biphenyl]-2-yl)sulfonyl)-4-fluoro-N-(4-(methylsulfonyl)but-3-en-2-yl)piperidine-4-carboxamide] are within 1.5-fold of each other in IC50: 960 nM for the first, 710 nM for the second.

`C[C@H](/C=C\S(C)(=O)=O)NC(=O)C1(F)CCN(S(=O)(=O)c2ccc(Br)cc2-c2ccccc2C(F)(F)F)CC1` [Compound 54, (R,Z)-1-((5-bromo-2′-(trifluoromethyl)-[1,1′-biphenyl]-2-yl)sulfonyl)-4-fluoro-N-(4-(methylsulfonyl)but-3-en-2-yl)piperidine-4-carboxamide] and `C[C@H](/C=C\S(C)(=O)=O)NC(=O)C1(F)CCN(S(=O)(=O)c2ccc(Br)cc2-c2ccccc2)CC1` [Compound 57, (R,Z)-1-((5-bromo-[1,1′-biphenyl]-2-yl)sulfonyl)-4-fluoro-N-(4-(methylsulfonyl)but-3-en-2-yl)piperidine-4-carboxamide] are within 1.5-fold of each other in IC50: 860 nM for the first, 580 nM for the second.

`C[C@H](/C=C\S(C)(=O)=O)NC(=O)C1(F)CCN(S(=O)(=O)c2ccc(Br)cc2-c2cccc(Cl)c2)CC1` [Compound 55, (R,Z)-1-((5-bromo-3′-chloro-[1,1′-biphenyl]-2-yl)sulfonyl)-4-fluoro-N-(4-(methylsulfonyl)but-3-en-2-yl)piperidine-4-carboxamide] and `Cc1cccc(Cl)c1-c1cc(Br)ccc1S(=O)(=O)N1CCC(F)(C(=O)N[C@H](C)/C=C\S(C)(=O)=O)CC1` [Compound 60, 1-((5-bromo-2′-chloro-6′-methyl-[1,1′-biphenyl]-2-yl)sulfonyl)-4-fluoro-N-((R,Z)-4-(methylsulfonyl)but-3-en-2-yl)piperidine-4-carboxamide] are within 1.5-fold of each other in IC50: 710 nM for the first, 810 nM for the second.

First: CS(=O)(=O)/C=C/CNC(=O)C1(F)CCN(S(=O)(=O)c2ccc(Br)cc2-c2ccccc2Cl)CC1 [Compound 64, (E)-1-((5-bromo-2′-chloro-[1,1′-biphenyl]-2-yl)sulfonyl)-4-fluoro-N-(3-(methylsulfonyl)allyl)piperidine-4-carboxamide]
Second: CC[C@@H](/C=C\S(C)(=O)=O)NC(=O)C1(F)CCN(S(=O)(=O)c2ccc(Br)cc2-c2ccccc2Cl)CC1 [Compound 82, (S,Z)-1-((5-bromo-2′-chloro-[1,1′-biphenyl]-2-yl)sulfonyl)-4-fluoro-N-(1-(methylsulfonyl)pent-1-en-3-yl)piperidine-4-carboxamide]
The IC50 of the first is 2.6-fold lower: 75 nM for the first, 198 nM for the second. The first is the more potent here.

Compared with `O=C(N[C@@H]1C=CS(=O)(=O)C1)C1(F)CCN(S(=O)(=O)c2ccc(Br)cc2-c2ccccc2Cl)CC1` [Compound 66, (R)-1-((5-bromo-2′-chloro-[1,1′-biphenyl]-2-yl)sulfonyl)-N-(1,1-dioxido-2,3-dihydrothiophen-3-yl)-4-fluoropiperidine-4-carboxamide], `O=C(N[C@H]1C=CS(=O)(=O)C1)C1(F)CCN(S(=O)(=O)c2ccc(Br)cc2-c2ccccc2Cl)CC1` [Compound 67, (S)-1-((5-bromo-2′-chloro-[1,1′-biphenyl]-2-yl)sulfonyl)-N-(1,1-dioxido-2,3-dihydrothiophen-3-yl)-4-fluoropiperidine-4-carboxamide] is 2.5-fold higher in IC50: 37.9 nM for the first, 95.6 nM for the second. The first is the more potent here.

First: C=C(C#N)CNC(=O)C1(F)CCN(S(=O)(=O)c2ccc(Br)cc2-c2ccccc2Cl)CC1 [Compound 72, 1-((5-bromo-2′-chloro-[1,1′-biphenyl]-2-yl)sulfonyl)-N-(2-cyanoallyl)-4-fluoropiperidine-4-carboxamide]
Second: C[C@@H](/C=C/S(=O)(=O)C1CNC1)NC(=O)C1(F)CCN(S(=O)(=O)c2ccc(Br)cc2-c2ccccc2Cl)CC1 [Compound 75, (S,E)-N-(4-(azetidin-3-ylsulfonyl)but-3-en-2-yl)-1-((5-bromo-2′-chloro-[1,1′-biphenyl]-2-yl)sulfonyl)-4-fluoropiperidine-4-carboxamide]
The IC50 of the first is 4.8-fold higher: 670 nM for the first, 140 nM for the second.

Going from `C[C@H](/C=C/S(=O)(=O)C1CNC1)NC(=O)C1(F)CCN(S(=O)(=O)c2ccc(Br)cc2-c2ccccc2Cl)CC1` [Compound 76, (R,E)-N-(4-(azetidin-3-ylsulfonyl)but-3-en-2-yl)-1-((5-bromo-2′-chloro-[1,1′-biphenyl]-2-yl)sulfonyl)-4-fluoropiperidine-4-carboxamide] to `CC[C@H](/C=C/S(=O)(=O)C1CNC1)NC(=O)C1(F)CCN(S(=O)(=O)c2ccc(Br)cc2-c2ccccc2Cl)CC1` [Compound 77, (R,E)-N-(1-(azetidin-3-ylsulfonyl)pent-1-en-3-yl)-1-((5-bromo-2′-chloro-[1,1′-biphenyl]-2-yl)sulfonyl)-4-fluoropiperidine-4-carboxamide], the IC50 rises from 32 nM to 128 nM (4-fold). The first is the more potent here.

Going from `CC[C@@H](/C=C/S(=O)(=O)C1CNC1)NC(=O)C1(F)CCN(S(=O)(=O)c2ccc(Br)cc2-c2ccccc2Cl)CC1` [Compound 78, (S,E)-N-(1-(azetidin-3-ylsulfonyl)pent-1-en-3-yl)-1-((5-bromo-2′-chloro-[1,1′-biphenyl]-2-yl)sulfonyl)-4-fluoropiperidine-4-carboxamide] to `C[C@H](/C=C\S(C)(=O)=O)NC(=O)C1(F)CCN(S(=O)(=O)c2ccc(CCO)cc2-c2ccccc2Cl)CC1` [Compound 128, (R,Z)-1-((2′-chloro-5-(2-hydroxyethyl)-[1,1′-biphenyl]-2-yl)sulfonyl)-4-fluoro-N-(4-(methylsulfonyl)but-3-en-2-yl)piperidine-4-carboxamide], the IC50 falls from 461 nM to 280 nM (1.6-fold). The second is the more potent here.

`COCCc1cccc(-c2cc(Cl)ccc2S(=O)(=O)N2CCC(F)(C(=O)N[C@@H](C)/C=C\S(C)(=O)=O)CC2)c1` [Compound 125, (S,Z)-1-((5-chloro-3′-(2-methoxyethyl)-[1,1′-biphenyl]-2-yl)sulfonyl)-4-fluoro-N-(4-(methylsulfonyl)but-3-en-2-yl)piperidine-4-carboxamide] and `CC(O)c1ccc(S(=O)(=O)N2CCC(F)(C(=O)N[C@H](C)/C=C\S(C)(=O)=O)CC2)c(-c2ccccc2Cl)c1` (stereo partly drawn) [Compound 129, 1-((2′-chloro-5-(1-hydroxyethyl)-[1,1′-biphenyl]-2-yl)sulfonyl)-4-fluoro-N-((R,Z)-4-(methylsulfonyl)but-3-en-2-yl)piperidine-4-carboxamide] are within 1.5-fold of each other in IC50: 610 nM for the first, 440 nM for the second.
